# Structures can show the parent of a compound that is named as a salt.
# Tests used:
# S. pyrogenes (UC 152) = test: Antibiotic potency: CD50 in mice challenged with a lethal dose of microorganism; assay type: in vivo; settings: oral intubation at 0, 24, 48 and 72 hours after interperitoneal challenge with S. pyrogenes (UC 152), dose curing 50% of mice, mean (95% confidence limits); for ED50: Mus musculus
# Experimental: (§1) The antibiotic potency of the salts of the present invention is illustrated by the data below providing CD50's of the various antibiotic agents, dissolved in inert vehicle, when administered to mice by oral intubation at 0, 24, 48, and 72 hours after challenge of the mice with an interperitoneally administered dose of microorganism which, in the absence of antibiotic agent, would be lethal. The CD50 for an agent is the dose at which 50% of the mice are cured under such a dosing schedule. In the data below the first number in each entry is the mean value and the numbers in parenthesis are the 95% confidence limits: […]
# S. aureus = test: as above; assay type: in vivo; settings: oral intubation at 0, 24, 48 and 72 hours after interperitoneal challenge with S. aureus, dose curing 50% of mice, mean (95% confidence limits)
# Experimental: as §1
SMILES,ED50 (S. pyrogenes (UC 152)) [µmol/kg],"ED50 (S. aureus; Staphylococcus aureus, po) [µmol/kg]",CD50 (S. pyrogenes (UC 152)),CD50 (S. aureus),CD50 (S. aureus; hydrochloride)
"CC1(C)S[C@@H]2[C@H](NC(=O)[C@H](N)c3ccccc3)C(=O)N2[C@H]1C(=O)O [ampicillin, 6-[D-(2-amino-2-phenylacetamido)] penicillanicacid]",0.49,2,,,
"CCOC(=O)OC(C)OC(=O)[C@@H]1N2C(=O)[C@@H](NC(=O)[C@H](N)c3ccccc3)[C@H]2SC1(C)C (stereo partly drawn) [bacampicillin 1-naphthalene-sulfonate, Bacampicillin 1-Naphthalenesulfonate]",,,0.15 (0.10-0.20) micromoles/kg,0.74 (0.43-1.3) micromoles/kg,
"CCOC(=O)OC(C)OC(=O)[C@@H]1N2C(=O)[C@@H](NC(=O)[C@H](N)c3ccccc3)[C@H]2SC1(C)C (stereo partly drawn) [bacampicillin-HCl, bacampicillin hydrochloride]",0.19,,,,1.5 (1.0-2.3) micromoles/kg
